# Source: ChEMBL document CHEMBL3044873, “Aryl N, N-Dimethylcarbamates, Synergists for Organophosphorus Insecticides against Organophos-phorusresistant Rice Stem Borers” (J Pestic Sci, 1990)
# Experiments:
# [1] = tested on: fenitrothion-detoxification activity by hydrolysis; assay: Inhibition of fenitrothion-detoxification activities by hydrolysis in OP-resistant Chilo suppressalis Hata-f (rice stem borer) at 1x10'-5M (reference value: 0%); format: organism-based; conditions: probe fenitrothion
# [2] = tested on: fenitrothion-detoxification activity by binding protein; assay: Inhibition of fenitrothion-detoxification activities by binding protein in OP-resistant Chilo suppressalis Hata-f (rice stem borer) at 1x10'-4M (reference value: 0%); format: organism-based; conditions: in vivo, probe fenitrothion
# [3] = tested on: fenitrothion-detoxification activity by binding protein; assay: Inhibition of fenitrothion-detoxification activities by binding protein in OP-resistant Chilo suppressalis Hata-f (rice stem borer) at 1x10'-6M (reference value: 0%); format: organism-based; conditions: in vivo, probe fenitrothion
# Chilo suppressalis [4] = assay: Inhibition of fenitrothion-detoxification activities by hydrolysis in OP-resistant Chilo suppressalis Hata-f (rice stem borer); format: organism-based; conditions: read-out: I50
# Chilo suppressalis [5] = assay: Potentiation of fenitrothion-induced insecticidal activity against OP-susceptible Chilo suppressalis (rice stem borer) S strain assessed as synergistic ratio at 1:10 fenitrothion to compound ratio relative to fenitrothion alone; format: functional
# [6] = tested on: fenitrothion-detoxification activity by hydrolysis; assay: Inhibition of fenitrothion-detoxification activities by hydrolysis in OP-resistant Chilo suppressalis Hata-f (rice stem borer) at 1x10'-7M (reference value: 0%); format: organism-based; conditions: probe fenitrothion
# [7] = tested on: fenitrothion-detoxification activity by hydrolysis; assay: Inhibition of fenitrothion-detoxification activities by hydrolysis in OP-resistant Chilo suppressalis Hata-f (rice stem borer) at 1x10'-6M (reference value: 0%); format: organism-based; conditions: probe fenitrothion
# Chilo suppressalis [8] = assay: Inhibition of fenitrothion-detoxification activities by binding protein in OP-resistant Chilo suppressalis Hata-f (rice stem borer); format: organism-based; conditions: read-out: I50
# [9] = tested on: fenitrothion-detoxification activity by hydrolysis; assay: Inhibition of fenitrothion-detoxification activities by hydrolysis in OP-resistant Chilo suppressalis Hata-f (rice stem borer) at 1x10'-4M (reference value: 0%); format: organism-based; conditions: probe fenitrothion
# Chilo suppressalis [10] = assay: Potentiation of pirimiphos-methyl-induced insecticidal activity against OP-resistant Chilo suppressalis Hata-f (rice stem borer) assessed as synergistic ratio at 1:1 pirimiphos-methyl to compound ratio relative to pirimiphos-methyl alone; format: functional
# [11] = tested on: fenitrothion-detoxification activity by binding protein; assay: Inhibition of fenitrothion-detoxification activities by binding protein in OP-resistant Chilo suppressalis Hata-f (rice stem borer) at 1x10'-5M (reference value: 0%); format: organism-based; conditions: in vivo, probe fenitrothion
# Chilo suppressalis [12] = assay: Potentiation of pirimiphos-methyl-induced insecticidal activity against OP-resistant Chilo suppressalis Hata-f (rice stem borer) assessed as synergistic ratio at 1:10 pirimiphos-methyl to compound ratio relative to pirimiphos-methyl alone; format: functional
# Chilo suppressalis [13] = assay: Potentiation of fenitrothion-induced insecticidal activity against OP-resistant Chilo suppressalis Hata-f (rice stem borer) assessed as synergistic ratio at 1:10 fenitrothion to compound ratio relative to fenitrothion alone; format: functional
# Chilo suppressalis [14] = assay: Potentiation of pirimiphos-methyl-induced insecticidal activity against OP-resistant Chilo suppressalis Hata-f (rice stem borer) assessed as synergistic ratio at 1:5 pirimiphos-methyl to compound ratio relative to pirimiphos-methyl alone; format: functional
# [15] = tested on: fenitrothion-detoxification activity by binding protein; assay: Inhibition of fenitrothion-detoxification activities by binding protein in OP-resistant Chilo suppressalis Hata-f (rice stem borer) at 1x10'-7M (reference value: 0%); format: organism-based; conditions: in vivo, probe fenitrothion
# Chilo suppressalis [16] = assay: Insecticidal activity against OP-resistance Chilo suppressalis Hata-f (rice stem borer) assessed as mortality measured after 24 hr; format: functional
# Chilo suppressalis [17] = assay: Insecticidal activity against OP-susceptible Chilo suppressalis S (rice stem borer) strain assessed as mortality measured after 24 hr; format: functional
# Chilo suppressalis [18] = assay: Resistance ratio, LC50 for OP-resistance Chilo suppressalis Hata-f (rice stem borer) to OP-susceptible Chilo suppressalis S (rice stem borer) strain; format: functional
structure (smiles),measurement,setting,value
Cc1cc(OC(=O)N(C)C)nc(N(C)C)n1,inhibition at 10 µM,[1],66.7%
same,inhibition at 100 µM,[2],78.4%
same,inhibition at 1 µM,[3],19.3%
same,IC50,Chilo suppressalis [4],4.5 µM
same,fold change (FC),Chilo suppressalis [5],1
same,inhibition at 0.1 µM,[6],0%
same,inhibition at 1 µM,[7],22.2%
same,IC50,Chilo suppressalis [8],3.3 µM
same,inhibition at 100 µM,[9],78%
same,fold change (FC),Chilo suppressalis [10],234
same,inhibition at 10 µM,[11],75%
same,fold change (FC),Chilo suppressalis [12],1061
same,fold change (FC),Chilo suppressalis [13],38
same,fold change (FC),Chilo suppressalis [14],751
same,inhibition at 0.1 µM,[15],0%
Cc1cc(OC(=O)N(C)C)ccc1[N+](=O)[O-],fold change (FC),Chilo suppressalis [5],0.7
same,fold change (FC),Chilo suppressalis [10],67
same,fold change (FC),Chilo suppressalis [12],207
same,fold change (FC),Chilo suppressalis [13],23
same,fold change (FC),Chilo suppressalis [14],196
COP(=S)(OC)Oc1ccc([N+](=O)[O-])c(C)c1 [FENITROTHION],LD50,Chilo suppressalis [16],69 mg/kg
same,LD50,Chilo suppressalis [17],1.8 mg/kg
same,RatioLC50,Chilo suppressalis [18],38
COP(=O)(OC)Oc1ccc([N+](=O)[O-])c(C)c1 [FENITROXON],LD50,Chilo suppressalis [16],27 mg/kg
same,LD50,Chilo suppressalis [17],1.2 mg/kg
same,RatioLC50,Chilo suppressalis [18],23
CCN(CC)c1nc(C)cc(OP(=S)(OC)OC)n1 [PIRIMIPHOS METHYL],LD50,Chilo suppressalis [16],1800 mg/kg
same,LD50,Chilo suppressalis [17],1.5 mg/kg
same,RatioLC50,Chilo suppressalis [18],1202
